In ChEMBL document CHEMBL4359843, “Linear and Rationally Designed Stapled Peptides Abrogate TLR4 Pathway and Relieve Inflammatory Symptoms in Rheumatoid Arthritis Rat Model” (J Med Chem, 2019) one finds Activity data, which are given here for two compounds.

Activity calls are given as the source filed them. The calls are words filed in the database; no cut-off is given here. Where a SMILES comes first, the peptide text is derived from it. Bridges are numbered along the chain shown (N, C = ends).

The target in data set [1] is TLR7 and TLR8 (Homo sapiens) (UniProt Q9NYK1+Q9NR97). In words: Antagonist activity at TLR7/8 in human THP1 cells assessed as reduction in R848-induced IL6 secretion at 50 uM after 24 hrs by ELISA. It counts as cell-based. (In general: ELISA stands for enzyme-linked immunosorbent assay.)
In data set [2] the target is TLR2/TLR6 (Homo sapiens) (UniProt O60603+Q9Y2C9). Briefly: Antagonist activity at TLR2/6 in human THP1 cells assessed as reduction in FSL-1-induced IL6 secretion at 50 uM after 24 hrs by ELISA. Format: cell-based.
The subject of data set [3] is Rattus norvegicus. In words: Antiarthritic activity in Lewis rat model of complete Freund's adjuvant-induced arthritis assessed as reduction in ankle diameter at 1 nmol/g administered intra-articularly into knee joint for 6 weeks and measured every week during compound dosing by vernier caliper analysis. It counts as functional, organism-based.
For data set [4], the target named is T1, Toll-like receptor 1/2 (Homo sapiens) (UniProt O60603+Q15399). Briefly: Antagonist activity at TLR2/1 in human THP1 cells assessed as reduction in PAM3CSK4-induced IL6 secretion at 50 uM after 24 hrs by ELISA. Format: cell-based.
Data set [5] addresses T2, Toll-like receptor 4 (Homo sapiens, UniProt O00206). Briefly: Antagonist activity at TLR4 in human THP1 cells assessed as reduction in LPS-induced NFkappaB p65 phosphorylation at 50 uM after 15 to 30 mins by Western blot analysis. It counts as cell-based. (Immunoblotting shows a protein as a band on a membrane.)
The subject of data set [6] is Rattus norvegicus. Briefly: Antiarthritic activity in Lewis rat model of complete Freund's adjuvant-induced arthritis assessed as increase in cartilage thickness at 1 nmol/g administered intra-articularly into knee joint after 1 week by H and E staining based histopathological analysis. It counts as functional, organism-based.
The target of data set [7] is T3, Toll-like receptor 4 (Mus musculus) (UniProt Q9QUK6).
T3 sequence (whole entry): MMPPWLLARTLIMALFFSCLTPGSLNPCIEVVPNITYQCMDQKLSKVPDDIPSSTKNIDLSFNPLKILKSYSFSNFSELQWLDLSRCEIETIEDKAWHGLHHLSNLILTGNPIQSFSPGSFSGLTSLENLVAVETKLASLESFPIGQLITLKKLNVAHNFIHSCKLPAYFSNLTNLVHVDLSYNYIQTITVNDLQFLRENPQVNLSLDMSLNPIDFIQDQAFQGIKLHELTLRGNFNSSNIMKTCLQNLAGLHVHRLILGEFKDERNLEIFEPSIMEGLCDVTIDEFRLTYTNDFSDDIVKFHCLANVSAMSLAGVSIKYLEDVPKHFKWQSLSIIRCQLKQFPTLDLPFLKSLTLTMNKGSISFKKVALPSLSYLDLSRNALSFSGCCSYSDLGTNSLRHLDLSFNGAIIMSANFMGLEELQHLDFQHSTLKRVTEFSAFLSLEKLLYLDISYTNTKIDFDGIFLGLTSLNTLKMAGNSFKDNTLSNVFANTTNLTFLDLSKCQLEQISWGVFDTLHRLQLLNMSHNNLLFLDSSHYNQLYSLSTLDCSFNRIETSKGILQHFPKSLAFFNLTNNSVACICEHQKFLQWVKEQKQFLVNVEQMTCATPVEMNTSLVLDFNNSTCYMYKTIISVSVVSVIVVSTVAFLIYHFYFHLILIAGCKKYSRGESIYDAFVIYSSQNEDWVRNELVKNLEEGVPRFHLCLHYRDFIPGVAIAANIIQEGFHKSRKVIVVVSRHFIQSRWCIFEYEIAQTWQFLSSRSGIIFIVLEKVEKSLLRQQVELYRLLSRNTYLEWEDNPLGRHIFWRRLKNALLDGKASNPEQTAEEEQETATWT
In words: Antagonist activity at TLR4 in mouse RAW264.7 cells assessed as reduction in LPS-induced IFNbeta secretion at 5 to 50 uM after 24 hrs by ELISA. It counts as cell-based.

Data set [8] deals with Rattus norvegicus. Briefly: Antiarthritic activity in Lewis rat model of complete Freund's adjuvant-induced arthritis assessed as reduction in TNFalpha expression in synovial tissues at 1 nmol/g administered intra-articularly into knee joint measured at 1 week by TNFalpha staining based immunohistochemical analysis. Format: functional, organism-based.
Data set [9] addresses T3, Toll-like receptor 4 (Mus musculus). Briefly: Antagonist activity at TLR4 in mouse BMDM cells assessed as reduction in LPS-induced TNFalpha secretion at 20 to 80 uM after 24 hrs by ELISA. It counts as cell-based.
Data set [10] has the same target. Briefly: Antagonist activity at TLR4 in mouse RAW264.7 cells assessed as reduction in LPS-induced JNK phosphorylation at 80 uM after 15 to 30 mins by Western blot analysis. Format: cell-based.
In data set [11] the target is T2, Toll-like receptor 4. In words: Antagonist activity at TLR4 in human PBMC cells assessed as reduction in LPS-induced JNK phosphorylation at 80 uM after 15 to 30 mins by Western blot analysis. It counts as cell-based.
The target in data set [12] is T2, Toll-like receptor 4. Briefly: Antagonist activity at TLR4 in human PBMC cells assessed as reduction in LPS-induced IL6 secretion at 20 to 80 uM after 24 hrs by ELISA. It counts as cell-based.
In data set [13] the target is T3, Toll-like receptor 4 (Mus musculus). In words: Antagonist activity at TLR4 in mouse RAW264.7 cells assessed as reduction in LPS-induced NFkappaB p65 phosphorylation at 80 uM after 15 to 30 mins by Western blot analysis. Format: cell-based.
Data set [14] deals with T1, Toll-like receptor 1/2 (Homo sapiens). Briefly: Antagonist activity at TLR2/1 in human PBMC cells assessed as reduction in PAM3CSK4-induced TNFalpha secretion at 20 to 80 uM after 24 hrs by ELISA. Format: cell-based.
Data set [15] deals with T3, Toll-like receptor 4 (Mus musculus). Briefly: Antagonist activity at TLR4 in mouse BMDM cells assessed as reduction in LPS-induced IL6 secretion at 20 to 80 uM after 24 hrs by ELISA. It counts as cell-based.
Data set [16] deals with RAW264.7. Briefly: Cytotoxicity against mouse RAW264.7 cells assessed as reduction in cell viability at 20 to 80 uM after 24 hrs by MTT assay. It counts as cell-based. As to conditions: raw264.7, 24 h.
In data set [17] the target is T3, Toll-like receptor 4 (Mus musculus). Briefly: Antagonist activity at TLR4 in mouse RAW264.7 cells assessed as reduction in LPS-induced NFkappaB p65 phosphorylation at 80 uM preincubated for 1 hr followed by LPS stimulation and measured after 30 mins by Alexafluor-488/Hoechst 33258 staining based immunofluorescence confocal microscopic method. Format: cell-based.

The target is the same in data set [18]. Briefly: Antagonist activity at TLR4 in mouse RAW264.7 cells assessed as reduction in LPS-induced ERK phosphorylation at 80 uM after 15 to 30 mins by Western blot analysis. Format: cell-based.
Data set [19] has as its target Toll-like receptor 2 (Homo sapiens) (UniProt O60603). In words: Non-specific binding affinity to human TLR2 up to 200 uM by surface plasmon resonance analysis. In general terms: Surface plasmon resonance follows binding to a sensor surface in real time, without labels.
The target in data set [20] is T1, Toll-like receptor 1/2 (Homo sapiens). Briefly: Antagonist activity at TLR2/1 in human PBMC cells assessed as reduction in PAM3CSK4-induced IL6 secretion at 20 to 80 uM after 24 hrs by ELISA. Format: cell-based.
In data set [21] the target is T3, Toll-like receptor 4 (Mus musculus). Briefly: Antagonist activity at TLR4 in mouse RAW264.7 cells assessed as reduction in LPS-induced IRF3 phosphorylation at 80 uM after 120 to 240 mins by Western blot analysis. It counts as cell-based.
The target is the same in data set [22]. In words: Antagonist activity at TLR4 in mouse RAW264.7 cells assessed as reduction in LPS-induced extracellular NO secretion at 20 to 80 uM by spectrophotometric method. Format: cell-based.
Data set [23] deals with T2, Toll-like receptor 4. Briefly: Antagonist activity at TLR4 in human PBMC cells assessed as reduction in LPS-induced TNFalpha secretion at 20 to 80 uM after 24 hrs by ELISA. Format: cell-based.

T2 sequence (O00206 whole entry): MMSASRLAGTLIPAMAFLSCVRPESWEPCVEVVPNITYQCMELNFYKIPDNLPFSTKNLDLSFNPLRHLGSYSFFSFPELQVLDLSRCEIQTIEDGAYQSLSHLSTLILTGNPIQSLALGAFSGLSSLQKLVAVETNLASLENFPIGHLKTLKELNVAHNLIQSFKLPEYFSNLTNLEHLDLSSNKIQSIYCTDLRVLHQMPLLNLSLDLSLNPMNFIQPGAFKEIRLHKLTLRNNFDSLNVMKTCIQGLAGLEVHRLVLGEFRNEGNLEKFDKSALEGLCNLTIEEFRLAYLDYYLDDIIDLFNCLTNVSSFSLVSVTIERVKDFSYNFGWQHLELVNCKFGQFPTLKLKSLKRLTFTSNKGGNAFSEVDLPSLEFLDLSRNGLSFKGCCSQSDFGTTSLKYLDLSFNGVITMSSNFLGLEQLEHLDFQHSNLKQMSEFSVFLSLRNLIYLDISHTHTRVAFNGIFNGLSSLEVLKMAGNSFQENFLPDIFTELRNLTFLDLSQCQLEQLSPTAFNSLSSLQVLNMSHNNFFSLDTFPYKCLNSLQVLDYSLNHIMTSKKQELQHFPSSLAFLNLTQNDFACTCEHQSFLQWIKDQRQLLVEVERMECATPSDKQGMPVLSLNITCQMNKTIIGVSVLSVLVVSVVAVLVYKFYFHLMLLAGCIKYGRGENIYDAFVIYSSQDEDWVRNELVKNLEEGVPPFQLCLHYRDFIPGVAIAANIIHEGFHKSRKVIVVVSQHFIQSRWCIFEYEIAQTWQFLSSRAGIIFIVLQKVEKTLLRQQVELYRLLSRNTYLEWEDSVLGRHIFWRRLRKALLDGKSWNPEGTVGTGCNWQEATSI
Sequence of Toll-like receptor 2 (Homo sapiens) (O60603 whole entry): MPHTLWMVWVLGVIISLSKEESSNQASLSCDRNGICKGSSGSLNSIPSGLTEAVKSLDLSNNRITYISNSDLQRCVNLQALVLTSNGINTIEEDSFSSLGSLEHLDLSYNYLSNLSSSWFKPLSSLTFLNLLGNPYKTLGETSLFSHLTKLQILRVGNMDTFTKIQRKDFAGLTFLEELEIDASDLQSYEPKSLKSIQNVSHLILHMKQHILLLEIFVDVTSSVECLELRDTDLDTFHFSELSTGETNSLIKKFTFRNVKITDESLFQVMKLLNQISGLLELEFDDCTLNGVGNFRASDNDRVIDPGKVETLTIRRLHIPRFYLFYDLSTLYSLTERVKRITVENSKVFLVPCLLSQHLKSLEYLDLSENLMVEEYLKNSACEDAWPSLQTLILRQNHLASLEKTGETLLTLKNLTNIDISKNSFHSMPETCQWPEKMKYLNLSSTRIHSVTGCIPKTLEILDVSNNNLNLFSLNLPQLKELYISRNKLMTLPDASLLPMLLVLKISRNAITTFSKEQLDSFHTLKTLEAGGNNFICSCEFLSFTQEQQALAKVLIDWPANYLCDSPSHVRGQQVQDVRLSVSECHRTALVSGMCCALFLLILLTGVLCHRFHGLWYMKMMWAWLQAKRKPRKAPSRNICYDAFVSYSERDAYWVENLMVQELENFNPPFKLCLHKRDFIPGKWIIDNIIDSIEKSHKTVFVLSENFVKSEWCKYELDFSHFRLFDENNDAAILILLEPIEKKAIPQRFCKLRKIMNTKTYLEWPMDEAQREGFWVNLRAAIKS

Consider `CC[C@H](C)[C@@H]1NC(=O)[C@H](Cc2c[nH]c3ccccc23)NC(=O)[C@H](Cc2c[nH]c3ccccc23)NC(=O)[C@@H](NC(=O)[C@H](CO)NC(=O)[C@H](Cc2ccccc2)NC(=O)[C@@H](NC(=O)CNC(=O)[C@@H](N)CC(C)C)C(C)C)CC(=O)NCCCC[C@@H](C(=O)N[C@@H](CC(C)C)C(=O)N[C@H](C(=O)O)C(C)C)NC1=O` (H-LGVFSDWWIKLV-OH; lactam 6-10), for which the outcome in data set [1], in data set [2], in data set [3], in data set [4], in [5] and in data set [6] was Active. For the same compound, the result in data set [7] and in data set [8] was Active.
With H-LGVFSSWWIKLV-OH, the outcome in data set [9], in data set [10], in data set [11], in data set [12], in [13] and in data set [15] was Active. Moreover, the result in data set [17], in data set [18], in data set [19], in [21], in data set [22] and in data set [23] was Active. Further, the result in [14] and in data set [20] was inactive. Also, the Activity entry in [16] was “Non-Toxic”.
